Biological target: T1, human MCH receptor 1 (MCHR1) (Homo sapiens, UniProt Q99705)
T1 construct: expressed in transfected cells; host or cells: CHO cell clone 57 (membrane fraction)
Assay: human MCH receptor 1 (MCHR1) competitive binding assay with [125I]-MCH(4-19)
Details: test compound 0.1 μM, human MCHR1-expressing CHO cell membrane fraction, 0.1 µM
Protocol: Determination of human MCH receptor 1 (MCHR1) competitive inhibitory activity of test compound using binding assay
1. Preparation of Membrane Fraction
Using human MCHR1 (=SLC-1 receptor)-expressing CHO cell clone 57 described in WO01/82925, MCHR1-expressing CHO cell membrane fractions were prepared by the following method.
In phosphate buffered saline (pH 7.4) supplemented with 5 mM EDTA (ethylenediaminetetraacetic acid) were respectively suspended human MCHR1-expressing CHO cells (1×10^8 cells) and centrifuged. Homogenate buffer (10 mL, 10 mM NaHCO3, 5 mM EDTA, pH 7.5, 0.5 mM PMSF (phenylmethylsulfonyl fluoride), 20 mg/L leupeptin, 4 mg/L E-64, 1 mg/L pepstatin A) was added to the pellets of the cells and, using Polytron Homogenizer, the mixture was homogenated. The supernatant obtained after centrifugation at 400×g for 10 min was further centrifuged at 100,000×g for 1 hr to give precipitate of the membrane fraction. The precipitate were suspended in 2 mL of assay buffer [20 mM Tris-HCl (pH 7.5), 5 mM EDTA, 0.5 mM PMSF, 20 mg/L leupeptin, 4 mg/L E-64, 1 mg/L pepstatin A]. The membrane fractions were suspended in assay buffer to a protein concentration of 2 mg/mL, and after dispensing, preserved at −80° C. and used upon thawing each time when in use.
The MCHR1 ligand binding inhibitory activity of the test compound was determined as follows.
An MCHR1-expressing CHO cell membrane fraction (173 μL) diluted with an assay buffer was dispensed to a 96 well polypropylene plate (3363, Corning). DMSO solution (2 μL), 33 μM cold MCH(1-19) diluted with DMSO solution (2 μL), or a test compound solution diluted with DMSO solution to various concentrations (2 μL) was added, and lastly, [^125I]-MCH (4-19) diluted with assay buffer (hereinafter, sometimes to be referred to as “hot MCH”, 25 μL) was added to each well. The mixture was reacted with stirring at room temperature for 1 hr, and the plate was set on FilterMate Harvester (PerkinElmer). Using a treating glass filter plate (GF/C, PerkinElmer) with polyethyleneimine, which had been previously set, the plate was suction-filtered and washed three times with washing buffer (50 mM Tris-HCl buffer pH 7.5). The glass filter plate was dried, MicroScinti0 (PerkinElmer) was added at 25 μL/well, and the resulting radioactivity was measured by TopCount liquid scintillation counter (PerkinElmer). The binding inhibition rate of the test compound was calculated by the following formula. Binding inhibition (%)=100−(radioactivity upon addition of test compound and hot MCH−radioactivity upon addition of cold MCH and hot MCH solution)/(radioactivity upon addition of DMSO solution and hot MCH−radioactivity upon addition of cold MCH and hot MCH solution)×100
The binding inhibition rates (%) of test compounds (0.1 μM) as measured using human MCHR1-expressing CHO cell are shown in Table 2.

T1 sequence (Q99705 whole entry): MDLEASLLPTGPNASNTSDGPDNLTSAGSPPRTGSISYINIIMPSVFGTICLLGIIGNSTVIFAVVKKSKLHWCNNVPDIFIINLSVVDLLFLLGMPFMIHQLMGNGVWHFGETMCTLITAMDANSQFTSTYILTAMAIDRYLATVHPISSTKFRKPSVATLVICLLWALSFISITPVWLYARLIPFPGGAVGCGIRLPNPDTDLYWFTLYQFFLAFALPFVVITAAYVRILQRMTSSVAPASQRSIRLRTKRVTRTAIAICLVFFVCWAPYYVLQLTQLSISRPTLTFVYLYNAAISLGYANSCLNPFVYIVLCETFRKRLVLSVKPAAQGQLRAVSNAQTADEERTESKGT

**Q.** With `Cn1c([C@H]2C[C@@H]2F)nc2ccc(-n3ccc(OCc4ccc(Cl)cc4)cc3=O)cc21` (racemic) [Example 137, 4-((4-Chlorobenzyl)oxy)-1-(2-((1RS,2SR)-2-fluorocyclopropyl)-1-methyl-1H-benzimidazol-6-yl)pyridin-2(1H)-one] as the compound, how does the “Binding inhibition rate % (0.1 μM)” value read?
**A.** 68%

**Q.** With `CCc1nc2ccc(-n3ccc(OCc4ccccc4)cc3=O)cc2n1C` [Example 47, 4-(Benzyloxy)-1-(2-ethyl-1-methyl-1H-benzimidazol-6-yl)pyridin-2(1H)-one] as the compound, how does the “Binding inhibition rate % (0.1 μM)” value read?
**A.** 62%

Same assay, conditions: test compound 0.1 μM, human MCHR1-expressing CHO cell membrane fraction, read-out: Binding inhibition rate % (0.1 μM)

**Q.** `Cn1c([C@H]2C[C@H]2F)nc2ccc(-n3ccc(OCc4ccc(Cl)cc4)cc3=O)cc21` (racemic) [Example 136, 4-((4-Chlorobenzyl)oxy)-1-(2-((1RS,2RS)-2-fluorocyclopropyl)-1-methyl-1H-benzimidazol-6-yl)pyridin-2(1H)-one] was tested. Which inhibition at 0.1 µM did it give?
**A.** 69%

**Q.** For `Cn1c([C@@H]2C[C@@H]2CO)nc2ccc(-n3ccc(OCc4ccc(Cl)cc4)cc3=O)cc21` (racemic) [Example 149, 4-((4-Chlorobenzyl)oxy)-1-(2-((1RS,2SR)-2-(hydroxymethyl)cyclopropyl)-1-methyl-1H-benzimidazol-6-yl)pyridin-2(1H)-one], which inhibition at 0.1 µM is on record?
**A.** 55%

**Q.** `Cn1c([C@@H]2C[C@@H]2C(C)(C)O)nc2ccc(-n3ccc(OCc4ccccc4)cc3=O)cc21` (racemic) [Example 152, 4-(Benzyloxy)-1-(2-((1RS,2SR)-2-(2-hydroxypropan-2-yl)cyclopropyl)-1-methyl-1H-benzimidazol-6-yl)pyridin-2(1H)-one] was tested. Which inhibition at 0.1 µM did it give?
**A.** 75%

**Q.** With `Cn1c([C@@H]2C[C@@H]2C(C)(C)F)nc2ccc(-n3ccc(OCc4ccccc4)cc3=O)cc21` (racemic) [Example 155, 4-(Benzyloxy)-1-(2-((1RS,2SR)-2-(2-fluoropropan-2-yl)cyclopropyl)-1-methyl-1H-benzimidazol-6-yl)pyridin-2(1H)-one] as the compound, how does the inhibition at 0.1 µM read?
**A.** 54%

**Q.** How did the inhibition at 0.1 µM turn out when `Cn1c([C@@H]2C[C@@H]2C(C)(C)O)nc2ccc(-n3ccc(OCc4ccc(Cl)s4)cc3=O)cc21` (racemic) [Example 203, 4-((5-Chloro-2-thienyl)methoxy)-1-(2-((1RS,2SR)-2-(2-hydroxypropan-2-yl)cyclopropyl)-1-methyl-1H-benzimidazol-6-yl)pyridin-2(1H)-one] was run?
**A.** 91%

**Q.** How did the inhibition at 0.1 µM turn out when `Cn1c([C@@H]2C[C@@H]2C(C)(C)O)nc2ccc(-n3ccc(OCc4ccc(Cl)cn4)cc3=O)cc21` (racemic) [Example 204, 4-((5-Chloropyridin-2-yl)methoxy)-1-(2-((1RS,2SR)-2-(2-hydroxypropan-2-yl)cyclopropyl)-1-methyl-1H-benzimidazol-6-yl)pyridin-2(1H)-one] was run?
**A.** 67%

**Q.** How did the inhibition at 0.1 µM turn out when `Cn1c([C@@H]2C[C@@H]2C(C)(C)O)nc2ccc(-n3ccc(OCc4ccc(F)cc4)cc3=O)cc21` (racemic) [Example 205, 4-((4-Fluorobenzyl)oxy)-1-(2-((1RS,2SR)-2-(2-hydroxypropan-2-yl)cyclopropyl)-1-methyl-1H-benzimidazol-6-yl)pyridin-2(1H)-one] was run?
**A.** 76%

**Q.** For `CCC(O)(CC)[C@H]1C[C@H]1c1nc2ccc(-n3ccc(OCc4ccc(Cl)cc4)cc3=O)cc2n1C` (racemic) [Example 206, 4-((4-Chlorobenzyl)oxy)-1-(2-((1RS,2SR)-2-(3-hydroxypentan-3-yl)cyclopropyl)-1-methyl-1H-benzimidazol-6-yl)pyridin-2(1H)-one], which inhibition at 0.1 µM is on record?
**A.** 95%

**Q.** With `Cn1c([C@@H]2C[C@@H]2C(C)(C)O)nc2ccc(-n3ccc(OCc4ccc(F)c(F)c4)cc3=O)cc21` (racemic) [Example 212, 4-((3,4-Difluorobenzyl)oxy)-1-(2-((1RS,2SR)-2-(2-hydroxypropan-2-yl)cyclopropyl)-1-methyl-1H-benzimidazol-6-yl)pyridin-2(1H)-one] as the compound, how does the inhibition at 0.1 µM read?
**A.** 80%

**Q.** Which inhibition at 0.1 µM does the source give for `Cn1c([C@@H]2C[C@@H]2C(C)(C)O)nc2ccc(-n3ccc(OCc4csc(Cl)c4)cc3=O)cc21` (racemic) [Example 215, 4-((5-Chloro-3-thienyl)methoxy)-1-(2-((1RS,2SR)-2-(2-hydroxypropan-2-yl)cyclopropyl)-1-methyl-1H-benzimidazol-6-yl)pyridin-2(1H)-one] here?
**A.** 92%

**Q.** Which inhibition at 0.1 µM does the source give for `Cn1c([C@@H]2C[C@@H]2C(C)(C)O)nc2ccc(-n3ccc(OCc4ccc(Cl)c(F)c4)cc3=O)cc21` (racemic) [Example 220, 4-((4-Chloro-3-fluorobenzyl)oxy)-1-(2-((1RS,2SR)-2-(2-hydroxypropan-2-yl)cyclopropyl)-1-methyl-1H-benzimidazol-6-yl)pyridin-2(1H)-one] here?
**A.** 81%

**Q.** Which inhibition at 0.1 µM does the source give for `Cn1c([C@@H]2C[C@@H]2C(C)(C)O)nc2ccc(-n3ccc(OCc4ccc(F)c(Cl)c4)cc3=O)cc21` (racemic) [Example 222, 4-((3-Chloro-4-fluorobenzyl)oxy)-1-(2-((1RS,2SR)-2-(2-hydroxypropan-2-yl)cyclopropyl)-1-methyl-1H-benzimidazol-6-yl)pyridin-2(1H)-one] here?
**A.** 80%

**Q.** Which inhibition at 0.1 µM does the source give for `Cn1c([C@@H]2CC[C@@H]2C(C)(C)O)nc2ccc(-n3ccc(OCc4ccc(Cl)cc4)cc3=O)cc21` (racemic) [Example 223, 4-((4-Chlorobenzyl)oxy)-1-(2-((1RS,2SR)-2-(2-hydroxypropan-2-yl)cyclobutyl)-1-methyl-1H-benzimidazol-6-yl)pyridin-2(1H)-one] here?
**A.** 60%

**Q.** `Cc1c(C2CC2)nc2ccc(-n3ccc(OCc4ccc(C(F)(F)F)cc4)cc3=O)cn12` [Example 5, 1-(2-Cyclopropyl-3-methylimidazo[1,2-a]pyridin-6-yl)-4-((4-(trifluoromethyl)benzyl)oxy)pyridin-2(1H)-one] was tested. Which inhibition at 0.1 µM did it give?
**A.** 58%

**Q.** For `CCn1c(C2CC2)nc2ccc(-n3ccc(OCc4ccc(F)cc4)cc3=O)cc21` [Example 20, 1-(2-Cyclopropyl-1-ethyl-1H-benzimidazol-6-yl)-4-((4-fluorobenzyl)oxy)pyridin-2(1H)-one], which inhibition at 0.1 µM is on record?
**A.** 59%

**Q.** How did the inhibition at 0.1 µM turn out when `CCn1c(C2CC2)nc2ccc(-n3ccc(OCc4ccc(Cl)cc4)cc3=O)cc21` [Example 21, 4-((4-Chlorobenzyl)oxy)-1-(2-cyclopropyl-1-ethyl-1H-benzimidazol-6-yl)pyridin-2(1H)-one] was run?
**A.** 76%

**Q.** `Cc1c(C2CC2)nc2ccc(-n3ccc(OCc4ccc(F)cc4F)cc3=O)cn12` [Example 22, 1-(2-Cyclopropyl-3-methylimidazo[1,2-a]pyridin-6-yl)-4-((2,4-difluorobenzyl)oxy)pyridin-2(1H)-one] was tested. Which inhibition at 0.1 µM did it give?
**A.** 81%

**Q.** Which inhibition at 0.1 µM does the source give for `Cc1nc2ccc(-n3ccc(OCc4ccc(Cl)cc4)cc3=O)cn2c1C` [Example 25, 4-((4-Chlorobenzyl)oxy)-1-(2,3-dimethylimidazo[1,2-a]pyridin-6-yl)pyridin-2(1H)-one] here?
**A.** 58%

**Q.** How did the inhibition at 0.1 µM turn out when `CCCn1c(C2CC2)nc2ccc(-n3ccc(OCc4ccc(Cl)cc4)cc3=O)cc21` [Example 27, 4-((4-Chlorobenzyl)oxy)-1-(2-cyclopropyl-1-propyl-1H-benzimidazol-6-yl)pyridin-2(1H)-one] was run?
**A.** 55%

**Q.** Which inhibition at 0.1 µM does the source give for `Cc1c(C2CC2)nc2ccc(-n3ccc(OCc4ccc(Cl)cn4)cc3=O)cn12` [Example 32, 4-((5-Chloropyridin-2-yl)methoxy)-1-(2-cyclopropyl-3-methylimidazo[1,2-a]pyridin-6-yl)pyridin-2(1H)-one] here?
**A.** 83%

**Q.** `Cc1csc(COc2ccn(-c3ccc4nc(C5CC5)n(C)c4c3)c(=O)c2)c1` [Example 56, 1-(2-Cyclopropyl-1-methyl-1H-benzimidazol-6-yl)-4-((4-methyl-2-thienyl)methoxy)pyridin-2(1H)-one] was tested. Which inhibition at 0.1 µM did it give?
**A.** 61%

**Q.** For `COc1ccc(COc2ccn(-c3ccc4nc(C5CC5)n(C)c4c3)c(=O)c2)cc1` [Example 77, 1-(2-Cyclopropyl-1-methyl-1H-benzimidazol-6-yl)-4-((4-methoxybenzyl)oxy)pyridin-2(1H)-one], which inhibition at 0.1 µM is on record?
**A.** 71%

**Q.** For `CC1CC1c1nc2ccc(-n3ccc(OCc4ccc(Cl)cc4)cc3=O)cc2n1C` (centres unmarked) [Example 90, 4-((4-Chlorobenzyl)oxy)-1-(1-methyl-2-(2-methylcyclopropyl)-1H-benzimidazol-6-yl)pyridin-2(1H)-one], which inhibition at 0.1 µM is on record?
**A.** 80%

**Q.** For `Cn1c(C2CCC2)nc2ccc(-n3ccc(OCc4ccc(Cl)cc4)cc3=O)cc21` [Example 109, 4-((4-Chlorobenzyl)oxy)-1-(2-cyclobutyl-1-methyl-1H-benzimidazol-6-yl)pyridin-2(1H)-one], which inhibition at 0.1 µM is on record?
**A.** 50%
